Inhibition data for seven compounds are collected here from ChEMBL document CHEMBL1126250, “Alpha-halo [(phenylphosphinyl)methyl]phosphonates as specific inhibitors of Na(+)-gradient-dependent Na(+)-phosphate cotransport across renal brush border membrane” (1992).

The assay is filed under the species Rattus norvegicus. As to the kind of experiment: In vitro inhibition of Na(+)-gradient-dependent uptake of 32 inorganic phosphate (Pi) by BBM vesicles freshly prepared from the rat renal cortex. It is filed as functional. On the set-up: concentration or dose not given beside the values.

Take `O=P(O)(O)C(F)(F)P(=O)(O)c1ccccc1`: the Inhibition was -39%. With `O=P(O)(O)C(Cl)P(=O)(O)c1ccccc1` (configuration not stated) the figure was -30%; with `O=P(O)(O)C(F)P(=O)(O)c1ccccc1` (configuration not stated), -49%; with `O=C(O)P(=O)(O)O` [FOSCARNET], -63%. With `O=P(O)(O)C(Cl)(Cl)P(=O)(O)c1ccccc1` the figure was -39%; with `O=P(O)(O)C(Cl)(Br)P(=O)(O)c1ccccc1` (configuration not stated), -31%. In the case of `O=P(O)(O)C(Br)(Br)P(=O)(O)c1ccccc1`, the Inhibition is -22%.

What is called Inhibition is the change of the read-out against control, counted positive when it falls.
